Patent US12465618B2, “Compositions and methods for degenerative disc regeneration” (University Health Network, priority 2015, dated 2025)

How the values were obtained:
[1] = system: human degenerative disc NP cells; assay: Western blotting of human degenerative disc NP cells; format: cell-based; details: within 24 hrs
Experimental: After euthanasia, healthy rat lumbar/caudal spine IVDs, injured tail discs and bovine caudal IVD NPs were removed aseptically and the nucleus pulposus (NP) was removed separately and enzymatically digested according to methods established by the present inventors^16. Similarly, human degenerative disc NPs were enzymatically digested using Pronase (0.4%, 1 hr at 37° C.) followed by Collagenase II treatment (0.015%, O/N, 37° C.). The following day, the cells were filtered with a 70p cell strainer and cultured within a hypoxic incubator (NuAire, MN, USA) in 3.5% O2, 5% CO2, in Advanced Dulbecco's modified Eagle's medium (ADMEM) supplemented with 8% fetal bovine serum (FBS) and penicillin and streptomycin (100 U/mL). For treatments, the cells were either cultured in serum free ADMEM (no treatment controls) or treated with interleukin-1β (IL-1β, 10 ng/mL), tumor necrosis factor-alpha (TNFα, 50 ng/mL), connective tissue growth factor (CTGF, 10-100 ng/mL), Wnt-inducible soluble protein 2 (WISP2, 10-100 ng/mL) or transforming growth factor beta 1 (TGFβ1, 5-20 ng/mL) for various time points under hypoxic conditions.
Equal amounts of whole cell or tissue lysates prepared using RIPA lysis buffer were subjected to Western blotting as described earlier^18,19. Total lysates (30 μg) were resolved on 10% sodium dodecyl sulphate-polyacrylamide gels (SDS-PAGE) under reducing conditions and then proteins were electro-transferred onto polyvinyledendifluoride (PVDF) membranes (BioRad, CA). After blocking with 5% non-fat powdered milk in Tris-buffered saline (TBS, 0.1 M, pH=7.4), blots were incubated with rabbit or goat polyclonal/mouse monoclonal primary antibodies at 4° C. overnight. […] Blots were washed three times with TTBS for 15 minutes and protein bands were detected by the enhanced chemiluminescence method (BioRad, CA) on Kodak Hyperfilm.

[2] = system: rat-tail injured disc NPs; assay: Pre-clinical rodent needle puncture disc injury model of DDD, intra-discal injection; format: in vivo, Wistar rat
Experimental: 12-week old female Wistar rats (Charles River Laboratories International, Inc., MA, USA) were used in order to develop a pre-clinical rodent model of DDD and to evaluate the therapeutic potential of NCCM, CTGF and TGFβ1 in these pre-clinical rodent models. Experiments were performed in accordance with the Guide for the Care and Use of Laboratory Animals, and the experimental protocols were approved by the ethics approval board of Toronto Western Hospital, Toronto, ON, Canada. The surgical procedure was as follows: Anesthesia was achieved using isofluorane (5 L/min plus 1 L/min O2) and maintained at 3 L/min. Once deeply anaesthetized, the animal was affixed on a stereotactic procedure apparatus (Model 900, Kopf Instruments California USA) with nose cone inhalation. For animal experiments, the tail was shaved and prepped with isopropanol in a sterile manner. Fluoroscopy was used to visualize needle penetration and to ensure that the needle penetrated into the center of the NP. For disc injury, a 26-gauge (G), 35° beveled, 0.75 inches high needle (Hamilton Company, USA) mounted on a Hamilton syringe was used. The needle was advanced completely through the selected tail IVD to penetrate the full thickness inclusive of the annulus fibrosus on both sides of the disc. Confirmation of needle placement was made using fluoroscopy and maintained in position for 2 minutes, withdrawn halfway to the center of the NP and left there for 1 minute and then slowly withdrawn completely over a 1-minute period. The animals were then removed from the stereotactic apparatus and allowed to recover in a warmed cage. At the end of study period i.e. 72 hrs-10 weeks, animals were humanely euthanized using CO2 and each vertebral lumbar/caudal motion segment was dissected aseptically. IVDs were either fixed in formalin for histological analysis or the nucleus pulposus (healthy/injured) was harvested and lysed in RIPA buffer (50 mM Tris, pH=7.4, 150 mM NaCl, 1% NP-40 and protease inhibitor cocktail) for western blotting.
To determine the regenerative potential of NCCM, CTGF or TGFβ1, 4 IVDs per animal of 12 week old rats were injured using a 26G needle as described above. Four weeks post-injury, animals were randomized into groups of six and an intra-discal injection (˜8 μL) of either NCCM, CTGF (100 ng/mL) or TGFβ1 (10 ng/mL) was given under local anesthesia. For NCCM injected animals, the control group consisted of animals that received an intra-discal injection (˜8 μL) of Hybridoma culture medium only, while phosphate buffered saline (PBS, 1×, pH=7.2) served as control for CTGF and TGFβ1 injected animal groups. Six weeks later, the NPs from injured and control discs were harvested and either fixed in formalin for histological analysis or lysed in RIPA lysis buffer for western blotting. Each of this experiment was repeated independently to ensure reproducibility.
The tissues were fixed in 10% formalin and decalcified in 10% EDTA solution. The decalcified disc was initially split in the mid sagittal plane, embedded in paraffin and 5p thick sections were obtained for histological evaluation. Hemaetoxylin and eosin (H&E) and Safranin-O staining was performed to assess general morphology and proteoglycan content in these tissue sections as previously described^16. For immunohistochemistry/immunofluorescence (IF), paraffin-embedded sections (5 μm) of human degenerative disc NP, bovine NP, healthy canines (NCD) and rat (healthy/injured) discs were deparaffinized in xylene, hydrated in gradient alcohol followed by antigen retrieval in Tris-EDTA buffer (pH=9.0). The sections were incubated with hydrogen peroxide (0.3% v/v) in methanol for 15 minutes to quench the endogenous peroxidase activity, followed by blocking with 10% serum to preclude non-specific binding. Thereafter, the slides were incubated with either rabbit or goat polyclonal/mouse monoclonal primary antibodies overnight (O/N) at 4° C. […]

[3] = system: human degenerative disc NP cells; assay: qRT-PCR with gene specific primers; format: cell-based; details: human degenerated disc NP cells, real time PCR
Experimental: Total RNA from healthy and treated (IL-1β alone or in combination with TNFα) rat NP cells, were isolated using RNAeasy extraction kit (Cat #74134, Qiagen) and quantified using a Nanodrop spectrophotometer. Total RNA (˜400 ng) was reverse-transcribed using RT^2 First Strand Kit (Cat #330401, Qiagen) following the manufacturer's instructions for preparing cDNA. To evaluate the effect of IL-1β alone or in combination with TNFα on extra-cellular matrix (ECM) genes in rat NP cells, the RT^2 Profiler™ PCR Array Rat Extracellular Matrix & Adhesion Molecules (PARN-013Z, Qiagen) was used and compared with no treatment controls (NTC) in 3 independent experiments using real time PCR performed on ABI 7900HT 384-well Fast block machine. Data analysis including calculation of ΔΔCt values, fold changes and p-values was carried out using software available online (https://www.qiagen.com/ca). Total RNA was isolated from human degenerative disc NP cells (H1/H2) treated with CTGF, TGFβ1, CTGF+TGFβ1 to evaluate their effect on collagen 2, HAPLN1, versican and thrombospondin 1 using gene specific primers. Similarly, RNA was isolated from human NP cells were treated with […] alone or in combination TNFα in presence of CTGF and TGFβ1 to determine their effect on Cox2 and MMP-13 expression using qRT-PCR.

[4] = rat tail injured discs, western blots, FIG. 12(b)

Substance: TGFβ1: Human recombinant transforming growth factor beta 1, Peprotech cat #100-21, identified in NCCM
- collagen 2 expression (Western blotting) [1]: increase
- aggrecan and collagen II (immunohistochemical analysis) ([2]; intra-discal injection four weeks following injury, 10 weeks post-injury, vs vehicle control): strong expression
- histological analysis, Safranin-O staining of NP ([2]; intra-discal injection four weeks following injury, CTGF 100 ng/mL, TGFβ1 10 ng/mL, 10 weeks post-injury, vs PBS): healthy disc, rich in NCs
- expression of MMP-13 and Cox2 in NP tissue lysates [2, 4]: decreased expression
- stem cell marker Oct4 in NP tissue lysates [2, 4]: restoration
- mRNA levels of collagen 2, HAPLN1, versican and thrombospondin1 (THBS1) [3]: Increased mRNA levels
